Some test systems named below: HOP-92; M14; UO-31; SK-MEL-2; OVCAR-3; HL-60; SK-MEL-5; SF-539; NCI-H522; KM-20L2; HCT-116; HCT-15; HOP-62; CAKI-1; SW-620; TK-10; SN12C.
What all share (assay): inhibition of tumour cell growth, NCI panel, 48 h

This is an account of results in ChEMBL document CHEMBL1201862, “PubChem BioAssay data set” (2004).

Structures are written as SMILES.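 In this assay, cells in 96-well plates receive the compound at five concentrations for 48 hours. Endpoints are linearly interpolated between the surrounding concentrations. GI50 = concentration required for 50% inhibition of growth.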 Activity calls are given as the source filed them. Rule as the data show it: active = GI50 up to about 1.1 µM and inactive = higher.

Regarding `COc1ccc(C(=O)C(C(=O)CCC(=O)Nc2cccc(C(F)(F)F)c2)c2ccccc2)cc1` (centres undefined), the GI50 with HOP-92 is 53.6 µM (inactive); in the test with M14, > 100 µM (inactive); with UO-31, 55.1 µM (inactive); in the test with SK-MEL-2, 96.8 µM (inactive); in the test on OVCAR-3, 80 µM (inactive); with HL-60, 61.2 µM (inactive). In addition, the GI50 in the test on SK-MEL-5 is 33.2 µM (inactive); in the test with SF-539, > 100 µM (inactive); in the test with NCI-H522, 32.1 µM (inactive); with KM-20L2, > 100 µM (inactive); in the test with HCT-116, 80.7 µM (inactive); with HCT-15, 78.5 µM. The GI50 in the test with HOP-62, in the test on CAKI-1, in the test on SW-620, in the test with TK-10 and in the test on SN12C was > 100 µM (inactive) in each case.
For the compound `OCC1O[C@H](O[C@@H]2CCCN3CC(O)C(O)[C@@H]23)C(O)C(O)C1O` (some centres undefined), the GI50 with HOP-92, in the test with M14, with UO-31, with SK-MEL-2, with OVCAR-3 and with HL-60 was > 100 µM (inactive) each time. In addition, the GI50 with SK-MEL-5 was > 100 µM (inactive); with SF-539 it was > 100 µM (inactive); in the test on NCI-H522, > 100 µM (inactive); in the test on KM-20L2, > 100 µM (inactive); in the test on HCT-116 it was > 100 µM (inactive); with HCT-15, greater than 100 µM. Besides, the GI50 with HOP-62, in the test on CAKI-1, with SW-620, in the test with TK-10 and with SN12C was > 100 µM (inactive) in each case.
